Experiment [1] concerns established methicillin-resistant S. epidermidis biofilm (ATCC 35984, NRS 101). As to the kind of experiment: Microtiter dish biofilm eradication assay (crystal violet). Conditions: 24 h. The experiment is classed as cell-based, Staphylococcus epidermidis. The procedure:
We used S. epidermidis ATCC 35984 (NRS 101), a high-slime producer isolated in septicemic patients, with colonized intravascular catheters from Tennessee, USA [10]. This strain is a multi-drug resistant strain, showing resistance to methicillin, erythromycin, kanamycin, gentamicin, clindamycin and trimethoprim. Briefly, an overnight culture of biofilm—producing MRSE was diluted 1:100 in a fresh medium containing 1% glucose in a 96-well tissue-culture treated plate. Bacteria were incubated at 37°C for 24 h to permit the formation of an adherent biofilm. The medium was removed and the biofilm was washed with PBS. Antibacterial drugs (vancomycin and linezolid) and rhodanine 2, at indicated concentration, were added and incubated again at 37°C for 24 h. Plates were washed again and biofilms were stained with 0.1% (wt/vol) crystal violet. Plates were washed with PBS, air-dried and biofilm mass was dissolved using 95% ethanol. The intensity of crystal violet was measured using a micro plate reader (SpectraMax i3x; Molecular Devices, Sunnyvale, CA, USA). Data are presented as the percent biofilm mass reduction in treated groups in relation to untreated wells.

Experiment [2] has as its system Staphylococcus epidermidis. The experiment is described as follows: Broth microdilution MIC, Staphylococcus epidermidis. The experiment is classed as cell-based. Background: Broth dilution looks for growth in wells or tubes with falling amounts of substance.

In brackets after ≈: the same amount, converted by molar mass. Some results are limits rather than exact numbers.

Here are results for two molecules from publication PMC5053523, “In Vitro Antibacterial Activity of Rhodanine Derivatives against Pathogenic Clinical Isolates” (PLoS ONE, 2016).

As a reminder, the MIC is the lowest concentration that inhibits growth of the organism. Consider `O=C(O)[C@H](Cc1ccccc1)N1C(=O)/C(=C/c2cccc(-c3ccc(Cl)c(Cl)c3)c2)SC1=S` [Rh 2], for which the biofilm mass reduction entry was “more than 35%” in experiment [1] (at 4 times its MIC, relative to untreated wells) and more than 45% in experiment [1] (at 8 times its MIC, relative to untreated wells). In addition, the MIC in experiment [2] was found to be 4 µM (≈ 2.06 µg/mL).
Turning to `CC(=O)NC[C@H]1CN(c2ccc(N3CCOCC3)c(F)c2)C(=O)O1` [Linezolid, linezolid, reference compound], the biofilm mass reduction result in experiment [1] (high concentrations (up to 8 X MIC)) is “not significantly decreased”.
